Source: US7276501B2, “6-(4-substituted-anilino)pyrimidine derivatives, method for preparation thereof and antiviral pharmaceutical composition comprising the same” (B & C Biopharm, priority 2002, dated 2007)

Biological target: T1, HCV RNA polymerase (RNA dependent RNA polymerase, NS5B) (Hepatitis C virus genotype 1b, UniProt P26663)
T1 construct: the NS5B region (1773 bps) was amplified by PCR and cloned into pVLHIS, a baculovirus transfer vector; (His)6; made in house; host or cells: Sf9 insect cells (recombinant baculovirus, pVLHIS-NS5B)
T1 sequence (P26663 2420-3010): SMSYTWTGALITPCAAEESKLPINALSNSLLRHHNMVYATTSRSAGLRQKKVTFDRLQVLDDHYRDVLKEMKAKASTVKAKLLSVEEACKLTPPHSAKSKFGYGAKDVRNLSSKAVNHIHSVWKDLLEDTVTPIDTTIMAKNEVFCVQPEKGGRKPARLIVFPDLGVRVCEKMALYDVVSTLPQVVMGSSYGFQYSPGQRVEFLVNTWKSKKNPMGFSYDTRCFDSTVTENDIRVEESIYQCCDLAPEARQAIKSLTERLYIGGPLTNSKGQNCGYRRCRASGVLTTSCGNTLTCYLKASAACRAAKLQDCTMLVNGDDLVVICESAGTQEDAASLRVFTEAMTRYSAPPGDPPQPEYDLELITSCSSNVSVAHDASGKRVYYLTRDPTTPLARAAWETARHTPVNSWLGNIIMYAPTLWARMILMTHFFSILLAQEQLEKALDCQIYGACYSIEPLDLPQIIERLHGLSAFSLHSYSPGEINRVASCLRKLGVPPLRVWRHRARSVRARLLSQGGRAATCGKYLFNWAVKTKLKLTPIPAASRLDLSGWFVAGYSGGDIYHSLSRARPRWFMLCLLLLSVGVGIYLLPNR
Experiment: Inhibitory effect on activity of recombinant HCV RNA polymerase (NS5B) in vitro
Format: biochemical, HCV-1b type HCV
Description: Test of Inhibitory Effect on Activity of HCV RNA Polymerase (RNA Dependent RNA Polymerase, NS5B) in vitro
The following in vitro experiments were conducted to examine the inhibitory effect of the compounds according to the present invention on the activity of HCV RNA dependent RNA Polymerase.
HCV cDNA was obtained from the blood of HCV-1b type HCV patient and the NS5B region (1773 bps) was amplified by PCR and cloned into pVLHIS, a baculovirus transfer vector, to prepare a recombinant transfer vector. The prepared transfer vector and the wild-type AcNPV vector were cotransfected into Sf9 insect cell line to yield a recombinant baculovirus containing the histidine-tagged recombinant vector pVLHIS-NS5B. Sufficiently cultured insect cells were infected with the resulting recombinant baculovirus and cultured in Grace's medium containing 10% FBS for 3 to 4 days. The culture broth was centriftiged to obtain only the infected cells. The cells were washed three times with PBS and resuspended in binding buffer [50 mM Na-phosphate (pH 8.0), 30 mM NaCl, 10 mM imidazole, 1 mM DTT, 10% glycerol, 1% NP40], sonicated and the clearized lysate was obtained. Recombinant NS5B was purified by affinity column chromatography using a Ni-NTA His bind resin (Novagen) to produce pure NS5B protein. The (His)6-tagged NS5B was bound to Ni-NTA resin and washed the binding buffer containing 50 mM imidazole. The bound NS5B was eluted with the binding buffer containing imidazole in a step-gradient manner (100-300 mM). The NS5B protein fractions were dialyzed against buffer [50 mM Tris-HCl, 50 mM NaCl, 1 mM DTT, […], 10% glycerol], followed by at −70° C. in a small aliquot.
The 3′UTR cDNA (220 bp) of HCV was obtained from 1b HCV RNA of the blood of a hepatitis C patient by PCR and cloned into pcDNA3 vector. Linearized DNA fragment containing the 3′-UTR was prepared using the restriction enzyme Eco RI and used as a template for in vitro transcription using T7 RNA ploymerase to prepare RNA fragment containing 3′-UTR.
In vitro inhibitory activity of the compounds of the present invention on recombinant HCV RNA polymerase was measured as follows.
A streptavidin-coated well plate was prepared suitable for the sample to be examined. 25 μl of 2× assay buffer [50 mM Tris-Cl (pH 7.5), 100 mM NaCl, 10 mM MgCl2, 20 mM KCl, 1 mM EDTA, 1 mM DTT] and 10 μl of purified HCV RNA polymerase 200 ng and 3′-UTR template RNA were added to each well. Then, 5 μl of the sample to be examined was added to have final concentrations of 10, 1, 0.1 and 0.01 μg/mL. Finally, 10 μl of a reactant solution containing DIG-(digoxigenin)-UTP, biotin-UTP, ATP, CTP, GTP, and UTP as a nucleotide for the ploymerase reaction with the RNA template of HCV 3′-UTR RNA was added to each well. The reaction mixture was incubated at 22° C. for 60 minutes. By the action of HCV polymerase, newly generated RNAs including UTP conjugated with biotin and DIG were copied and these new RNAs could bind to streptavidin coated on the well by biotin-conjugated UTP. After completion of the reaction, the plate was washed three times with 200 μl of a washing buffer (pH 7.0, Roche Co.) to remove unreacted substances and impurities. Then, 100 μl of the secondary antibody anti-DIG-POD (peroxidase, Roche Co.) was added to each well and incubated at 37° C. for 1 hour. Again, the well plate was washed with the washing buffer. Finally, 100 μl of ABTS^R (Roche Co.) as a POD substrate was added to each well and reacted for 15 to 30 minutes. The optical density (OD) was measured using an ELISA reader (Bio-Tek instrument Co.) at 405 nm. The inhibitory effect on the activity of HCV polymerase was calculated by subtracting the OD of the positive control without the sample.

CSc1nc(Nc2ccc(N3CCOCC3)cc2)cc(N2CCN(C(=O)OC(C)C)CC2)n1 [Example 1, 2-methylthio-6-[4-(4-morpholino)anilino]-4-[4-(isopropoxycarbonyl)piperazin-1-yl]pyrimidine]
Inhibition of activity of HCV RNA polymerase (%) (0.01 μg/mL): 29% | Inhibition of activity of HCV RNA polymerase (%) (0.1 μg/mL): 55% | Inhibition of activity of HCV RNA polymerase (%) (1 μg/mL): 81% | Inhibition of activity of HCV RNA polymerase (%) (10 μg/mL): 99%

CSc1nc(Nc2ccc(N3CCOCC3)cc2)cc(N2CCN(C(=O)c3cccnc3)CC2)n1 [Example 2, 2-methylthio-6-[4-(4-morpholino)anilino]-4-[4-[(3-pyridyl)carbonyl]piperazin-1-yl]pyrimidine]
Inhibition of activity of HCV RNA polymerase (%) (0.01 μg/mL): 15% | Inhibition of activity of HCV RNA polymerase (%) (0.1 μg/mL): 30% | Inhibition of activity of HCV RNA polymerase (%) (1 μg/mL): 62% | Inhibition of activity of HCV RNA polymerase (%) (10 μg/mL): 98%

CSc1nc(Nc2ccc(N3CCOCC3)cc2)cc(N2CCN(CC(=O)O)CC2)n1 [Example 4, 2-methylthio-6-[4-(4-morpholino)anilino]-4-[4-(carboxymethyl)piperazin-1-yl]pyrimidine]
Inhibition of activity of HCV RNA polymerase (%) (0.01 μg/mL): 27% | Inhibition of activity of HCV RNA polymerase (%) (0.1 μg/mL): 52% | Inhibition of activity of HCV RNA polymerase (%) (1 μg/mL): 65% | Inhibition of activity of HCV RNA polymerase (%) (10 μg/mL): 94%

CSc1nc(Nc2ccc(N3CCOCC3)cc2)cc(N2CCN(C(=O)c3ccncc3)CC2)n1 [Example 3, 2-methylthio-6-[4-(4-morpholino)anilino]-4-[4-[(4-pyridyl)carbonyl]piperazin-1-yl]pyrimidine]
Inhibition of activity of HCV RNA polymerase (%) (0.01 μg/mL): 23% | Inhibition of activity of HCV RNA polymerase (%) (0.1 μg/mL): 53% | Inhibition of activity of HCV RNA polymerase (%) (1 μg/mL): 73% | Inhibition of activity of HCV RNA polymerase (%) (10 μg/mL): 93%
